Where only a bound is given, the exact number is not on record here.

Data on one substance can be found in patent US20240279687A1, “PEPTIDE NUCLEIC ACIDS FOR SPATIOTEMPORAL CONTROL OF CRISPR-CAS BINDING” (Yale University, priority 2021, published 2024).

The target of data set [1] is T1, dCas9-p300 / MYOD1 sgRNA (UniProt Q09472+Q99ZW2, D10A/H840A).
T1 construct: P2A-PuroR (C)
Kind of data set: dCas9-p300 MYOD1 expression in stable K562 cells, RT-qPCR. Conditions: 250 pmol PNA. It counts as cell-based, human. On the procedure: Stable K562-pLV-dCas9-p300 line was established from lentivirus generated from pLV-dCas9-p300-P2A-PuroR plasmid (Addgene: #83889) and Invitrogen Virapower packaging plasmids in 293FT cells (Invitrogen, R70007) and puromycin selection (2 μg/mL, Gibco). Lines were further transduced with lentivirus similarly generated with pLV-U6-UbC-eGFP-P2A-Bsr plasmids (Addgene: #83925) containing MYOD promoter targeted sgRNA sequences with blasticidin selection (5 μg/mL, Gibco, A1113903, Table 4).
6×10^6 stable dCas9-p300/MYOD1 sgRNA expressing K562 cells (Addgene #83889, Addgene #83925), were nucleofected with 250 pmol of specified PNA (non-targeting BFP or POU5F1) using a Lonza 4D nucleofector. At each specified time point 500 μL of cells were removed from each condition flask, spun down, and frozen. […] Expression relative to the untreated parent K562 line was recorded as fold-change and calculated using the ΔΔCT method. […]
For RNA extractions 0.5×10^6 K562 cells were spun down, washed once with PBS, homogenized using QIAshredder columns (QIAGEN 79656) and processed using QIAGEN RNeasy mini kits (74106) before eluting in 50 μL of water. […] Expression relative to the untreated K562 parent line was recorded as fold-change and calculated from averaged CT values using the ΔΔCT method.
Background: In qPCR the cycle at which signal appears reflects the starting amount.

For data set [2], the target named is T1, dCas9-p300 / MYOD1 sgRNA. Kind of data set: ChIP-qPCR of H3K27ac occupancy at the MYOD1 promoter region. The class given is cell-based, human. Conditions: 24 and 48 hours after PNA treatment (250 pmol), subsequent increase at 240 hours. On the procedure: K562 cells (6×10^6 cells) were diluted to 0.4×10^6 cells/mL and cross-linked with a final concentration of 1% formaldehyde (Sigma-Aldrich, 252549) for each IP. Chromatin was prepared and sheared according to manufacturer protocol using SimpleChIP Enzymatic Chromatin IP Kit (Cell Signaling, #9003) and QSONICA Q800R3 sonicator for nuclear lysis. For each condition, 10 μg of chromatin was incubated with 3 μg of H3K27ac antibody (abcam ab4729) rotating overnight at 4° C. Chromatin was incubated with 30 μL of protein G magnetic beads (Cell Signaling, #70024) and washed, eluted, reverse cross-linked, and purified according to manufacturer protocol. ChIP-qPCR reactions were conducted in technical triplicate for 2% input and IP samples using a StepOnePLUS Real-Time PCR System (Applied Biosystems), SimpleChIP Universal qPCR Mastermix (Cell Signaling, #88989), and MYOD1 target specific primers (Table 8). Percent occupancy values were calculated by percent input method from 2% input samples for each replicate.

Take “KKK-GCACGCCCTTTCCAAACCT-KKK (Three lysine residues flank each end, further chemistry not given here) [MYOD1 p300 PNA]”: in the data set with dCas9-p300 / MYOD1 sgRNA [1], the “time by which epigenetic-mediated MYOD1 gene upregulation was driven down” value was not above 24 h and the “time by which expression returned to the fully upregulated state” value is not above 168 h. Besides, the “H3K27ac occupancy at the MYOD1 promoter region” value with dCas9-p300 / MYOD1 sgRNA [2] was “significant decrease”.
